Patent publication US6358928B1, “Peptidyl sulfonyl imidazolides as selective inhibitors of serine proteases” (Enzyme Systems Products, priority 1999, dated 2002)
Each block holds one molecule with its values, some of them ahead of it.

Experiments:
human leukocyte elastase = target: T1, human leukocyte elastase (Homo sapiens, UniProt P08246); assay: Inhibition of human leukocyte elastase (kobs/[I], spectrophotometric, MeOSuc-Ala-Ala-Pro-Val-AMC substrate); format: biochemical
T1 sequence (P08246 30-267): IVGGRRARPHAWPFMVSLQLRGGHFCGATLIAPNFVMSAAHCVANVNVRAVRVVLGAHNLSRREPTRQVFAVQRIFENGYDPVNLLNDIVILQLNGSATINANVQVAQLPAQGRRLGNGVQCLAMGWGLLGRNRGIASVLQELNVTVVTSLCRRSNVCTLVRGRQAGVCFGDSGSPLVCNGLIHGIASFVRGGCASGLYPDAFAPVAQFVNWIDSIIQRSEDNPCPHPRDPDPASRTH
Experimental: (§1) Z-Ala-Ala-AlaCH2SO2-Im, prepared as in Example 1, was assayed for serine protease inhibition activity against human leukocyte elastase. Various concentrations of inhibitor were rapidly mixed with fixed aliquots of enzyme and allowed to react for at least two half-lives. Aliquots of the treated enzyme were then assayed spectrophotometrically for protease activity using MeOSuc-Ala-Ala-Pro-Val-AMC as the substrate to determine kobs/[I]. […] 359-361 (1975), incorporated herein by reference.

human cathepsin G = target: T2, human cathepsin G (Homo sapiens, UniProt P08311); assay: Inhibition of human cathepsin G, assayed as in Example 2; format: biochemical; settings: present-tense example
T2 sequence (P08311 21-244): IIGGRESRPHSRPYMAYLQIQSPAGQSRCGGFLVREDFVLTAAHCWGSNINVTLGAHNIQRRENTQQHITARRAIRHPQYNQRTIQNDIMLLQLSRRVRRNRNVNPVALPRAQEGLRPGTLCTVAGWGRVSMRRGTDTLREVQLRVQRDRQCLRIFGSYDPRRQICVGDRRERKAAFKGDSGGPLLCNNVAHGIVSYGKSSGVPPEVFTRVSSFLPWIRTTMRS
Experimental: as §1
MeOSuc-Ala-Ala-Pro-ValCH2SO2-Im is prepared as in example 3 and assayed as in Example 2 for inhibition of human leukocyte elastase and human cathepsin G with the corresponding peptidyl chloromethane, MeOSuc-Gly-Leu-PheCH2SO2-Im, and Z-Ala-Ala-AlaCH2SO2-Im as comparator inhibitors.
Z-Gly-Leu-PheCH2SO2-Im is prepared as in Example 5, and is assayed as in Example 2 for inhibition of human cathepsin G and human leukocyte elastase with the corresponding peptidyl chloromethane, MeOSuc-Ala-Ala-Pro-ValCH2SO2-Im, and Z-Ala-Ala-AlaCH2SO2-Im as comparator inhibitors.

[1] = enzyme concentration 200 μM, substrate 100 μM, inhibitor 200 μM

Molecule: C[C@H](NC(=O)OCc1ccccc1)C(=O)N[C@@H](C)C(=O)N[C@@H](C)CS(=O)(=O)n1ccnc1 [Z-Ala-Ala-AlaCH2SO2-Im]
times more potent than the corresponding peptidyl chloromethane inhibitor (human leukocyte elastase; comparator value as reported in Tuhy and Powers, FEBS Letters 50, 359-361 (1975)): 45 times | kobs (human leukocyte elastase; [1]): 0.0025 s⁻¹ | kobs/[I] (human leukocyte elastase; [1]): 12.7 M⁻¹ s⁻¹

kobs/[I] against human leukocyte elastase compared with MeOSuc-Ala-Ala-Pro-ValCH2SO2-Im (human leukocyte elastase; present-tense example): significantly lower | kobs/[I] against human cathepsin G compared with comparator inhibitors (human cathepsin G; comparators: corresponding peptidyl chloromethane, MeOSuc-Ala-Ala-Pro-ValCH2SO2-Im, Z-Ala-Ala-AlaCH2SO2-Im): significantly higher
Molecule: CC(C)C[C@H](NC(=O)CNC(=O)OCc1ccccc1)C(=O)N[C@@H](Cc1ccccc1)CS(=O)(=O)n1ccnc1 [Z-Gly-Leu-PheCH2SO2-Im]

kobs/[I] against human leukocyte elastase compared with comparator inhibitors (human leukocyte elastase; comparators: corresponding peptidyl chloromethane, MeOSuc-Gly-Leu-PheCH2SO2-Im, Z-Ala-Ala-AlaCH2SO2-Im, present-tense example): significantly higher | kobs/[I] against human cathepsin G compared with MeOSuc-Gly-Leu-PheCH2SO2-Im (human cathepsin G): significantly lower
Molecule: MeOSuc-Ala-Ala-Pro-ValCH2SO2-Im
